The target in test [1] is T1, glutathione-S-transferase (GST) tagged LXRbeta LBD (ligand binding domain) (Homo sapiens, UniProt P55055).
T1 construct: purchased Invitrogen pv4658.pps
T1 sequence (P55055 222-460 limits assumed): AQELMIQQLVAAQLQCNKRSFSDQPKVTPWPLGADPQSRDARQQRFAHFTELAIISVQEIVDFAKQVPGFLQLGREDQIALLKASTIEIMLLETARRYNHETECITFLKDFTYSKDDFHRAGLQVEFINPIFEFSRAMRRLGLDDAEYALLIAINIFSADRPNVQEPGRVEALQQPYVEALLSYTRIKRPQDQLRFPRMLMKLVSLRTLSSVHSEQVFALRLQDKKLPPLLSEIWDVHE
Kind of test: LanthaScreen TR-FRET Liver X Receptor Coactivator Assay, co-activator recruitment to LXRbeta LBD. It is filed as biochemical. Conditions: for Emax: read-out: LXR beta Activity @ max dose (%); for pEC50: potency (Inflection Point, IP), co-activator recruitment to LXRbeta LBD, in relation to T0901317, read-out: LXR beta IP. Put shortly: (§1)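 Efficacy (Emax) and inflection-point potency were scaled to reference agonist T0901317, acting on both LXR subtypes. Ligand-driven coactivator peptide recruitment was detected by TR-FRET after room-temperature incubation with terbium anti-GST antibody.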
(TR-FRET usually uses a lanthanide donor and a delayed reading to cut background.)

The target in test [2] is T2, glutathione-S-transferase (GST) tagged LXRalpha LBD (ligand binding domain) (Homo sapiens, UniProt Q13133).
T2 construct: purchased Invitrogen pv4655
T2 sequence (Q13133 209-447 limits assumed): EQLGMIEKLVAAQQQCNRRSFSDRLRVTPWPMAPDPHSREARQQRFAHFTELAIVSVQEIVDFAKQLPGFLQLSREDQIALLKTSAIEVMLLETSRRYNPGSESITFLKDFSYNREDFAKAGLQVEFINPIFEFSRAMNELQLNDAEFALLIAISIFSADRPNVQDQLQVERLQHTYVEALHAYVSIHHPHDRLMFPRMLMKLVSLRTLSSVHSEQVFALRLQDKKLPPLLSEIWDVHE
The experiment in a line: LanthaScreen TR-FRET Liver X Receptor Coactivator Assay, co-activator recruitment to LXRalpha LBD. The class given is biochemical. Conditions: for Emax: read-out: LXR alpha Activity @ max dose (%); for LXR alpha IP (nM) / pEC50: potency (Inflection Point, IP), co-activator recruitment to LXRalpha LBD, in relation to T0901317; for pEC50: read-out: LXR alpha IP. Put shortly:
as §1

Where [3] appears, read: efficacy at max dose, in relation to reference dual agonist T0901317.

pEC50: −log10 of the molar value.

For `CN(C)C(=O)c1ccc(N2CCC(CC3CCN(C(=O)[C@](O)(c4cccc(OC(F)(F)F)c4)C(F)(F)F)CC3)CC2)cc1` [Example 2-144, N,N-dimethyl-4-{4-[(1-{(2R)-3,3,3-trifluoro-2-hydroxy-2-[3-(trifluoro-methoxy)phenyl]propanoyl}piperidin-4-yl)methyl]piperidin-1-yl}benzamide], the Emax in test [1] (setting [3]) was 55%; in test [2] (setting [3]) it was 14%. Moreover, the pEC50 in test [1] was 7.11. Further, the “LXR alpha IP (nM)” value in test [2] is “NO IP”.
The matching figures for `CCOc1cccc([C@@](O)(C(=O)N2CCC(CC3CCN(c4ccc(C(=O)N(C)C)cc4)CC3)CC2)C(F)(F)F)c1` [Example 2-145, 4-[4-({1-[(2R)-2-(3-ethoxy-phenyl)-3,3,3-trifluoro-2-hydroxy-propanoyl]piperidin-4-yl}methyl)piperidin-1-yl]-N,N-dimethyl-benzamide]: 54%, 4%, 7.14 and “NO IP”.
Consider `CN(C)C(=O)c1ccc(N2CCC(CC3CCN(C(=O)[C@](O)(c4cccc(Cl)c4)C(F)(F)F)CC3)CC2)cc1` [Example 2-146, 4-[4-({1-[(2R)-2-(3-chloro-phenyl)-3,3,3-trifluoro-2-hydroxy-propanoyl]piperidin-4-yl}methyl)piperidin-1-yl]-N,N-dimethyl-benzamide], for which, in test [1] (setting [3]), the “LXR beta Activity @ max dose (%)” value is recorded as 64%. In addition, the pEC50 in test [1] is 7.48. Further, the “LXR alpha Activity @ max dose (%)” value in test [2] (setting [3]) is 10%. Also, the “LXR alpha IP (nM)” value in test [2] was “NO IP”.
Take `Cc1cc(N2CCC(CC3CCN(C(=O)[C@](O)(c4cccc(OC(C)C)c4)C(F)(F)F)CC3)CC2)ccc1C(=O)N(C)C` [Example 2-147, N,N,2-trimethyl-4-{4-[(1-{(2R)-3,3,3-trifluoro-2-hydroxy-2-[3-(1-methylethoxy)phenyl]propanoyl}piperidin-4-yl)methyl]piperidin-1-yl}benzamide]: the Emax in test [1] (setting [3]) came to 52%; in test [2] (setting [3]) it was 7%. Moreover, the pEC50 in test [1] is 7.72. In addition, the “LXR alpha IP (nM)” value in test [2] is “NO IP”.
Consider `Cc1cc(N2CCC(CC3CCN(C(=O)[C@](O)(c4cccc(C(F)(F)F)c4)C(F)(F)F)CC3)CC2)ccc1C(=O)N(C)C` [Example 2-148, N,N,2-trimethyl-4-{4-[(1-{(2R)-3,3,3-trifluoro-2-hydroxy-2-[3-(trifluoromethyl)phenyl]propanoyl}piperidin-4-yl)methyl]piperidin-1-yl}benzamide], for which the Emax was found to be 62% in test [1] (setting [3]) and 22% in test [2] (setting [3]). In addition, the pEC50 was 7.62 in test [1] and 6.40 in test [2].
On to `Cc1cc(N2CCC(CC3CCN(C(=O)[C@](O)(c4cccc(C(C)C)c4)C(F)(F)F)CC3)CC2)ccc1C(=O)N(C)C` [Example 2-149, N,N,2-trimethyl-4-{4-[(1-{(2R)-3,3,3-trifluoro-2-hydroxy-2-[3-(1-methyl-ethyl)phenyl]propanoyl}piperidin-4-yl)methyl]piperidin-1-yl}benzamide], for which the Emax in test [1] (setting [3]) is 54%; in test [2] (setting [3]), 14%. Moreover, in test [1], the pEC50 was 7.70. Further, the “LXR alpha IP (nM)” value in test [2] is given as “NO IP”.
The matching figures for `Cc1cc(N2CCC(CC3CCN(C(=O)[C@](O)(c4cccc(OC(F)(F)F)c4)C(F)(F)F)CC3)CC2)ccc1C(=O)N(C)C` [Example 2-150, N,N,2-trimethyl-4-{4-[(1-{(2R)-3,3,3-trifluoro-2-hydroxy-2-[3-(trifluoromethoxy)phenyl]propanoyl}piperidin-4-yl)methyl]piperidin-1-yl}benzamide]: 56%, 15%, 7.64 and “NO IP”.
The like results for `CCOc1cccc([C@@](O)(C(=O)N2CCC(CC3CCN(c4ccc(C(=O)N(C)C)c(C)c4)CC3)CC2)C(F)(F)F)c1` [Example 2-151, 4-[4-({1-[(2R)-2-(3-ethoxy-phenyl)-3,3,3-trifluoro-2-hydroxy-propanoyl]piperidin-4-yl}methyl)piperidin-1-yl]-N,N,2-trimethyl-benzamide] were, in that order, 45%, 4%, 8.05 and “NO IP”.
The like results for `COc1cc(F)cc([C@@](O)(C(=O)N2CCC(CC3CCN(c4ccc(C(=O)N(C)C)c(C)c4)CC3)CC2)C(F)(F)F)c1` [Example 2-152, N,N,2-trimethyl-4-[4-({1-[(2R)-3,3,3-trifluoro-2-(3-fluoro-5-methoxyphenyl)-2-hydroxy-propanoyl]piperidin-4-yl}methyl)piperidin-1-yl]benzamide] were, in that order, 74%, 18%, 7.96 and “NO IP”.
`Cc1cc(N2CCC(CC3CCN(C(=O)[C@](O)(c4cc(F)cc(Cl)c4)C(F)(F)F)CC3)CC2)ccc1C(=O)N(C)C` [Example 2-153, 4-[4-({1-[(2R)-2-(3-chloro-5-fluorophenyl)-3,3,3-trifluoro-2-hydroxy-propanoyl]piperidin-4-yl}methyl)piperidin-1-yl]-N,N,2-trimethyl-benzamide]: the Emax is 95% in test [1] (setting [3]) and 41% in test [2] (setting [3]). Moreover, the pEC50 in test [1] is 8.10; in test [2], 6.91.
As for `Cc1cc(N2CCC(CC3CCN(C(=O)[C@](O)(c4cc(Cl)cc(Cl)c4)C(F)(F)F)CC3)CC2)ccc1C(=O)N(C)C` [Example 2-154, 4-[4-({1-[(2R)-2-(3,5-dichloro-phenyl)-3,3,3-trifluoro-2-hydroxy-propanoyl]piperidin-4-yl}methyl)piperidin-1-yl]-N,N,2-trimethyl-benzamide], the figures for the Emax in test [1] (setting [3]) and in test [2] (setting [3]) were 54% and 6%, respectively. Besides, in test [1], the pEC50 is 7.64. Moreover, in test [2], the “LXR alpha IP (nM)” value is “NO IP”.
In the case of `Cc1cc(N2CCC(CC3CCN(C(=O)[C@](O)(c4ccccc4)C(F)(F)F)CC3)CC2)ccc1C(=O)N(C)C` [Example 2-155, N,N,2-trimethyl-4-[4-({1-[(2R)-3,3,3-trifluoro-2-hydroxy-2-phenyl-propanoyl]piperidin-4-yl}methyl)piperidin-1-yl]benzamide], the Emax was determined as 69% in test [1] (setting [3]) and 33% in test [2] (setting [3]). For the same compound, the pEC50 in test [1] is 7.60; in test [2] it was 6.41.
In the case of `CCc1cccc([C@@](O)(C(=O)N2CCC(CC3CCN(c4ccc(C(=O)N(C)C)c(C)c4)CC3)CC2)C(F)(F)F)c1` [Example 2-156, 4-[4-({1-[(2R)-2-(3-ethyl-phenyl)-3,3,3-trifluoro-2-hydroxy-propanoyl]piperidin-4-yl}methyl)piperidin-1-yl]-N,N,2-trimethyl-benzamide], the Emax in test [1] (setting [3]) came out at 42%; in test [2] (setting [3]), 12%. Moreover, the pEC50 in test [1] was 7.68. Further, the “LXR alpha IP (nM)” value in test [2] was “NO IP”.
The matching figures for `Cc1cccc([C@@](O)(C(=O)N2CCC(CC3CCN(c4ccc(C(=O)N(C)C)c(C)c4)CC3)CC2)C(F)(F)F)c1` [Example 2-157, N,N,2-trimethyl-4-[4-({1-[(2R)-3,3,3-trifluoro-2-hydroxy-2-(3-methylphenyl)propanoyl]piperidin-4-yl}methyl)piperidin-1-yl]benzamide]: 43%, 9%, 7.80 and “NO IP”.
Turning to `COc1cccc([C@@](O)(C(=O)N2CCC(CC3CCN(c4ccc(C(=O)N(C)C)c(C)c4)CC3)CC2)C(F)(F)F)c1` [Example 2-158, N,N,2-trimethyl-4-[4-({1-[(2R)-3,3,3-trifluoro-2-hydroxy-2-(3-methoxyphenyl)propanoyl]piperidin-4-yl}methyl)piperidin-1-yl]benzamide], the Emax in test [1] (setting [3]) was determined as 44%; in test [2] (setting [3]), 6%. For the same compound, in test [1], the pEC50 is 7.70. Also, the “LXR alpha IP (nM)” value in test [2] is on record as “NO IP”.
On to `Cc1cc(N2CCC(CC3CCN(C(=O)[C@](O)(c4cccc(Cl)c4)C(F)(F)F)CC3)CC2)ccc1C(=O)N(C)C` [Example 2-159, 4-[4-({1-[(2R)-2-(3-chloro-phenyl)-3,3,3-trifluoro-2-hydroxy-propanoyl]piperidin-4-yl}methyl)piperidin-1-yl]-N,N,2-trimethyl-benzamide], for which the results for the Emax in test [1] (setting [3]) and in test [2] (setting [3]) were 65% and 22%, respectively. The pEC50 in test [1] is 7.68; in test [2] it was 6.81.
On to `CN(C)C(=O)c1ccc(N2CCC(CC3CCCN(C(=O)[C@](O)(c4ccccc4)C(F)(F)F)CC3)CC2)cc1Cl` (stereo partly drawn) [Example 2-160, 2-chloro-N,N-dimethyl-4-[4-({1-[(2R)-3,3,3-trifluoro-2-hydroxy-2-phenyl-propanoyl]azepan-4-yl}methyl)piperidin-1-yl]benzamide], for which the figures for the Emax in test [1] (setting [3]) and in test [2] (setting [3]) were 33% and 12%, respectively. For the same compound, the pEC50 in test [1] was 7.59. The “LXR alpha IP (nM)” value in test [2] is “NO IP”.

Source of the values: patent publication US10752587B2, “Homobispiperidinyl derivatives as liver X receptor beta agonists, compositions and their use” (Merck Sharp & Dohme Corp., priority 2015, dated 2020).
